Assay results taken from PubChem BioAssay AID1963428 (Molecular Pharmacology Branch, DTP, NCI, 2024).

System: 171881-019-R-J1-PDC complex spheroid growth, % test/control
Assay: Anticancer human tumor 171881-019-R-J1-PDC patient-derived invasive breast carcinoma cell line growth inhibition [Asc]
Settings: for IC50: curve of first compound; for viability, T/C: stronger effect = lower value
Outline: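 Tumor cells were grown as complex spheroids with human endothelial cells (HUVEC) and human mesenchymal stem cells as stroma. Agents were tested alone and in combination, in half-log steps down from the clinical Cmax, or from 10 microM where Cmax was unknown.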
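For viability, T/C in this document: spheroids exposed to compounds for 7 days.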

With `C=CC(=O)N1CCN(c2nc(=O)n(-c3c(C)ccnc3C(C)C)c3nc(-c4c(O)cccc4F)c(F)cc23)C(C)C1` (stereo not given) + CCN1C(C(=O)NC23CCC(C(=O)O)(CC2)CC3)C(c2cccc(Cl)c2F)C2(C(=O)Nc3cc(Cl)ccc32)C12CCCCC2 the IC50 (second compound 0.03 µM) was over 10 µM, the IC50 (second compound 0.0949 µM) was over 10 µM and the IC50 (second compound 0.3 µM) was over 10 µM. It also gave an IC50 (second compound 0.949 µM) of over 10 µM, an IC50 (second compound 3 µM) of over 10 µM and a viability, T/C (second compound 0.03 µM, first compound 0.0316 µM) of 103%. It also gave a viability, T/C (second compound 0.03 µM, first compound 0.1 µM) of 102%, a viability, T/C (second compound 0.03 µM, first compound 0.316 µM) of 100% and a viability, T/C (second compound 0.03 µM, first compound 1 µM) of 96.8%. The viability, T/C (second compound 0.03 µM, first compound 3.16 µM) was 102%, the viability, T/C (second compound 0.03 µM, first compound 10 µM) was 103% and the viability, T/C (second compound 0.0949 µM, first compound 0.0316 µM) was 93.5%. For the same molecule, the viability, T/C (second compound 0.0949 µM, first compound 0.1 µM) was 91.7%, the viability, T/C (second compound 0.0949 µM, first compound 0.316 µM) was 107% and the viability, T/C (second compound 0.0949 µM, first compound 1 µM) was 112%. The viability, T/C (second compound 0.0949 µM, first compound 3.16 µM) was 94.4%, the viability, T/C (second compound 0.0949 µM, first compound 10 µM) was 109% and the viability, T/C (second compound 0.3 µM, first compound 0.0316 µM) was 116%. For the same molecule, the viability, T/C (second compound 0.3 µM, first compound 0.1 µM) was 105%, the viability, T/C (second compound 0.3 µM, first compound 0.316 µM) was 105% and the viability, T/C (second compound 0.3 µM, first compound 1 µM) was 109%. It also gave a viability, T/C (second compound 0.3 µM, first compound 3.16 µM) of 107%, a viability, T/C (second compound 0.3 µM, first compound 10 µM) of 90.7% and a viability, T/C (second compound 0.949 µM, first compound 0.0316 µM) of 96.5%. It also gave a viability, T/C (second compound 0.949 µM, first compound 0.1 µM) of 104%, a viability, T/C (second compound 0.949 µM, first compound 0.316 µM) of 116% and a viability, T/C (second compound 0.949 µM, first compound 1 µM) of 106%. It also gave a viability, T/C (second compound 0.949 µM, first compound 3.16 µM) of 106%, a viability, T/C (second compound 0.949 µM, first compound 10 µM) of 116% and a viability, T/C (second compound 3 µM, first compound 0.0316 µM) of 94.2%. The viability, T/C (second compound 3 µM, first compound 0.1 µM) was 112%, the viability, T/C (second compound 3 µM, first compound 0.316 µM) was 103% and the viability, T/C (second compound 3 µM, first compound 1 µM) was 97%. The viability, T/C (second compound 3 µM, first compound 3.16 µM) was 99.8% and the viability, T/C (second compound 3 µM, first compound 10 µM) was 107%.

`Cn1ncnc1[C@H]1c2n[nH]c(=O)c3cc(F)cc(c23)N[C@@H]1c1ccc(F)cc1` + CNC(C)C(=O)NC1CN(S(=O)(=O)c2cccc(S(=O)(=O)N3CCC4CCC(C(=O)NC(c5ccccc5)c5ccccc5)N4C(=O)C(NC(=O)C(C)NC)C3)c2)CCC2CCC(C(=O)NC(c3ccccc3)c3ccccc3)N2C1=O was tested, and the IC50 (second compound 0.01 µM) was over 0.1 µM, the IC50 (second compound 0.0316 µM) was over 0.1 µM and the IC50 (second compound 0.1 µM) was over 0.1 µM. For the same molecule, the IC50 (second compound 0.316 µM) was over 0.1 µM, the IC50 (second compound 1 µM) was over 0.1 µM and the viability, T/C (second compound 0.01 µM, first compound 0.000316 µM) was 78.9%. For the same molecule, the viability, T/C (second compound 0.01 µM, first compound 0.001 µM) was 91.9%, the viability, T/C (second compound 0.01 µM, first compound 0.00316 µM) was 95.9% and the viability, T/C (second compound 0.01 µM, first compound 0.01 µM) was 101%. The viability, T/C (second compound 0.01 µM, first compound 0.0316 µM) was 89.3%, the viability, T/C (second compound 0.01 µM, first compound 0.1 µM) was 95.2% and the viability, T/C (second compound 0.0316 µM, first compound 0.000316 µM) was 103%. For the same molecule, the viability, T/C (second compound 0.0316 µM, first compound 0.001 µM) was 98.5%, the viability, T/C (second compound 0.0316 µM, first compound 0.00316 µM) was 94.8% and the viability, T/C (second compound 0.0316 µM, first compound 0.01 µM) was 104%. For the same molecule, the viability, T/C (second compound 0.0316 µM, first compound 0.0316 µM) was 104%, the viability, T/C (second compound 0.0316 µM, first compound 0.1 µM) was 92.4% and the viability, T/C (second compound 0.1 µM, first compound 0.000316 µM) was 95.3%. For the same molecule, the viability, T/C (second compound 0.1 µM, first compound 0.001 µM) was 97.1%, the viability, T/C (second compound 0.1 µM, first compound 0.00316 µM) was 101% and the viability, T/C (second compound 0.1 µM, first compound 0.01 µM) was 100%. The viability, T/C (second compound 0.1 µM, first compound 0.0316 µM) was 96%, the viability, T/C (second compound 0.1 µM, first compound 0.1 µM) was 89% and the viability, T/C (second compound 0.316 µM, first compound 0.000316 µM) was 94.2%. The viability, T/C (second compound 0.316 µM, first compound 0.001 µM) was 97.4%, the viability, T/C (second compound 0.316 µM, first compound 0.00316 µM) was 94.8% and the viability, T/C (second compound 0.316 µM, first compound 0.01 µM) was 95.3%. It also gave a viability, T/C (second compound 0.316 µM, first compound 0.0316 µM) of 97.8%, a viability, T/C (second compound 0.316 µM, first compound 0.1 µM) of 90.7% and a viability, T/C (second compound 1 µM, first compound 0.000316 µM) of 85%. It also gave a viability, T/C (second compound 1 µM, first compound 0.001 µM) of 98.5%, a viability, T/C (second compound 1 µM, first compound 0.00316 µM) of 93.3% and a viability, T/C (second compound 1 µM, first compound 0.01 µM) of 83.8%. The viability, T/C (second compound 1 µM, first compound 0.0316 µM) was 107% and the viability, T/C (second compound 1 µM, first compound 0.1 µM) was 85.5%.
